Test results: patent US11330820B2, “Pesticidally active mixtures” (BASF Agrochemical Products B.V., priority 2016, dated 2022)
Values joined by “and” are separate entries in the source; they are usually repeats but may differ in a detail not shown here. Equal entries are not always repeated.

Key:
Assay type in all cases: in vivo
[1] = tested on: vetch aphid (Megoura viciae); assay: Control of vetch aphid on broad bean leaf disks, contact or systemic (B.1)
Experimental: For evaluating control of vetch aphid (Megoura viciae) through contact or systemic means the test unit consisted of 24-well-microtiter plates containing broad bean leaf disks. The compounds or mixtures were formulated using a solution containing 75% by weight water and 25% by weight DMSO. Different concentrations of formulated compounds or mixtures were sprayed onto the leaf disks at 2.5 μl, using a custom built micro atomizer, at two replications.
(§1) For experimental mixtures in these tests identical volumes of both mixing partners at the desired concentrations respectively, were mixed together.
After application, the leaf disks were air-dried and 5-8 adult aphids placed on the leaf disks inside the microtiter plate wells. The aphids were then allowed to suck on the treated leaf disks and incubated at 23+1° C., 50+5% RH for 5 days. Aphid mortality and fecundity was then visually assessed.

[2] = tested on: green peach aphid (Myzus persicae); assay: Control of green peach aphid through systemic means, artificial diet under membrane (B.2)
Description: For evaluating control of green peach aphid (Myzus persicae) through systemic means the test unit consisted of 96-well-microtiter plates containing liquid artificial diet under an artificial membrane.
The compounds or mixtures were formulated using a solution containing 75% by weight water and 25% by weight DMSO. Different concentrations of formulated compounds or mixtures were pipetted into the aphid diet, using a custom built pipetter, at two replications.
For experimental mixtures in these tests identical volumes of both mixing partners at the desired concentrations respectively were mixed together.
After application, 5-8 adult aphids were placed on the artificial membrane inside the microtiter plate wells. The aphids were then allowed to suck on the treated aphid diet and incubated at 23±1° C., 50±5% RH for 3 days. Aphid mortality and fecundity was then visually assessed.

[3] = tested on: boll weevil (Anthonomus grandis); assay: Control of boll weevil, insect diet with eggs (B.3)
Experimental: For evaluating control of boll weevil (Anthonomus grandis) the test unit consisted of 24-well-microtiter plates containing an insect diet and 20-30 A. grandis eggs.
(§2) The compounds or mixtures were formulated using a solution containing 75% by weight water and 25% by weight DMSO. Different concentrations of formulated compounds or mixtures were sprayed onto the insect diet at 20 μl, using a custom built micro atomizer, at two replications. For experimental mixtures in these tests identical volumes of both mixing partners at the desired concentrations respectively, were mixed together.
After application, microtiter plates were incubated at 23±1° C., 50±5% RH for 5 days. Egg and larval mortality was then visually assessed.

[4] = tested on: Greenhouse Whitefly (Trialeurodes vaporariorum); assay: Control of greenhouse whitefly, egg plant leaf disk with white fly eggs (B.5)
Experimental: as §2, with “For evaluating control of Greenhouse Whitefly (Trialeurodes vaporariorum) the test unit consisted of 96-well-microtiter plates containing a leaf disk of egg plant leaf disk with white fly eggs. The” for “The”, “2.5” for “20”
After application, microtiter plates were incubated at 23±1° C., 65±5% RH for 6 days. Mortality of hatched crawlers was then visually assessed.

[5] = tested on: tobacco budworm (Heliothis virescens); assay: Control of tobacco budworm, insect diet with eggs (B.4)
Experimental: For evaluating control of tobacco budworm (Heliothis virescens) the test unit consisted of 96-well-microtiter plates containing an insect diet and 15-25 H. virescens eggs.
The compounds or mixtures were formulated using a solution containing 75% by weight water and 25% by weight DMSO. Different concentrations of formulated compounds or mixtures were sprayed onto the insect diet at 10 μl, using a custom built micro atomizer, at two replications.
as §1
After application, microtiter plates were incubated at 28+1° C., 80+5% RH for 5 days. Egg and larval mortality was then visually assessed.

[6] = 0.8 ppm, aphid mortality and fecundity after 5 days

In the case of `Cn1nc(C(F)(F)C(F)(F)F)c(C(F)(F)F)c1C(=O)Nc1ccc(Cl)c(C(=O)NCc2ccccc2)c1` [II.1, N-[4-Chloro-3-[[(phenylmethyl)amino]carbonyl]phenyl]-1-methyl-3-(1,1,2,2,2-pentafluoroethyl)-4-(trifluoromethyl)-1H-pyrazole-5-carboxamide], the “Average Control %” value [1, 6] was 0%.

For `CCS(=O)(=O)c1cccnc1-c1nc2cc(C(F)(F)F)cnc2n1C` [II.3-1, 2-(3-ethylsulfonyl-2-pyridyl)-3-methyl-6-(trifluoromethyl)imidazo[4,5-b]pyridine], the “Average Control %” value ([1]; 10 ppm, after 5 days) was 50%, the “Average Control %” value ([2]; 10 ppm, after 3 days) was 37.5% and the “Average Control %” value ([3]; 50 ppm, egg and larval mortality after 5 days) was 25%. For the same molecule, the “Average Control %” value ([4]; 2 + 0 ppm, mortality of hatched crawlers after 6 days) was 25%.

For `CCN1OC[C@@H](NC(=O)c2ccc(C3=NOC(c4cc(Cl)cc(Cl)c4)(C(F)(F)F)C3)cc2C)C1=O` (stereo partly drawn) [II.4-1, 4-[5-(3,5-dichlorophenyl)-5-(trifluoromethyl)-4H-isoxazol-3-yl]-N-[(4R)-2-ethyl-3-oxo-isoxazolidin-4-yl]-2-methyl-benzamide], the “Average Control %” value ([2]; 2 ppm, aphid mortality and fecundity after 3 days) was 0% and the “Average Control %” value ([5]; 0.08 ppm, egg and larval mortality after 5 days) was 0%.

For `CN(C(=O)c1ccccc1)c1cccc(C(=O)Nc2c(Br)cc(C(F)(C(F)(F)F)C(F)(F)F)cc2C(F)(F)F)c1F` [compound a), broflanilide], the “Average Control %” value ([1]; 0.08 ppm, after 5 days) was 0%, the “Average Control %” value [1, 6] was 50% and 25% and the “Average Control %” value ([2]; 0.08 ppm, after 3 days) was 0%. For the same molecule, the “Average Control %” value ([2]; 0.8 ppm, after 3 days) was 25%, the “Average Control %” value ([3]; 0.08 ppm, after 5 days) was 25% and the “Average Control %” value ([5]; 0.8 ppm, after 5 days) was 0%. The “Average Control %” value ([4]; 0 + 0.4 ppm, after 6 days) was 0%.
